± gives the expanded uncertainty stated by the source.
Experiment: xn = mol fraction of the nth substance listed
Details: Liquid, Vibrating tube method

CCCCCCCCCC [decane] + CCCCCCCC
mass density (353.12 K, 10000 kPa, x2 = 0.2801): 687.61 ± 0.46 kg/m3
mass density (353.12 K, 10000 kPa, x2 = 0.5314): 680.99 ± 0.47 kg/m3
mass density (353.12 K, 10000 kPa, x2 = 0.7736): 673.43 ± 0.47 kg/m3
mass density (353.12 K, 10990 kPa, x2 = 0.0616): 693.88 ± 0.47 kg/m3
mass density (353.12 K, 10990 kPa, x2 = 0.2801): 688.64 ± 0.47 kg/m3
mass density (353.12 K, 10990 kPa, x2 = 0.5314): 682.03 ± 0.47 kg/m3
mass density (353.12 K, 10990 kPa, x2 = 0.7736): 674.52 ± 0.48 kg/m3
mass density (353.12 K, 12000 kPa, x2 = 0.0616): 694.85 ± 0.47 kg/m3
mass density (353.12 K, 12000 kPa, x2 = 0.2801): 689.64 ± 0.47 kg/m3
mass density (353.12 K, 12000 kPa, x2 = 0.5314): 683.07 ± 0.48 kg/m3
mass density (353.12 K, 12000 kPa, x2 = 0.7736): 675.55 ± 0.49 kg/m3
mass density (353.12 K, 13000 kPa, x2 = 0.0616): 695.8 ± 0.48 kg/m3
mass density (353.12 K, 13000 kPa, x2 = 0.2801): 690.64 ± 0.48 kg/m3
mass density (353.12 K, 13000 kPa, x2 = 0.5314): 684.09 ± 0.49 kg/m3
mass density (353.12 K, 13000 kPa, x2 = 0.7736): 676.59 ± 0.49 kg/m3
mass density (353.12 K, 14000 kPa, x2 = 0.0616): 696.76 ± 0.48 kg/m3
mass density (353.12 K, 14000 kPa, x2 = 0.2801): 691.6 ± 0.49 kg/m3
mass density (353.12 K, 14000 kPa, x2 = 0.5314): 685.09 ± 0.49 kg/m3
mass density (353.12 K, 14000 kPa, x2 = 0.7736): 677.61 ± 0.5 kg/m3
mass density (353.12 K, 15000 kPa, x2 = 0.0616): 697.7 ± 0.49 kg/m3
mass density (353.12 K, 15000 kPa, x2 = 0.2801): 692.59 ± 0.49 kg/m3
mass density (353.12 K, 15000 kPa, x2 = 0.5314): 686.08 ± 0.5 kg/m3
mass density (353.12 K, 15000 kPa, x2 = 0.7736): 678.66 ± 0.51 kg/m3
mass density (353.12 K, 16000 kPa, x2 = 0.0616): 698.61 ± 0.5 kg/m3
mass density (353.12 K, 16000 kPa, x2 = 0.2801): 693.55 ± 0.5 kg/m3
mass density (353.12 K, 16000 kPa, x2 = 0.5314): 687.05 ± 0.51 kg/m3
mass density (353.12 K, 16000 kPa, x2 = 0.7736): 679.66 ± 0.51 kg/m3
mass density (353.12 K, 17000 kPa, x2 = 0.0616): 699.52 ± 0.5 kg/m3
mass density (353.12 K, 17000 kPa, x2 = 0.2801): 694.46 ± 0.51 kg/m3
mass density (353.12 K, 17000 kPa, x2 = 0.5314): 688 ± 0.51 kg/m3
mass density (353.12 K, 17000 kPa, x2 = 0.7736): 680.68 ± 0.52 kg/m3
mass density (353.12 K, 18000 kPa, x2 = 0.0616): 700.43 ± 0.51 kg/m3
mass density (353.12 K, 18000 kPa, x2 = 0.2801): 695.35 ± 0.51 kg/m3
mass density (353.12 K, 18000 kPa, x2 = 0.5314): 688.93 ± 0.52 kg/m3
mass density (353.12 K, 18000 kPa, x2 = 0.7736): 681.63 ± 0.53 kg/m3
mass density (353.12 K, 19000 kPa, x2 = 0.0616): 701.32 ± 0.51 kg/m3
mass density (353.12 K, 19000 kPa, x2 = 0.2801): 696.27 ± 0.52 kg/m3
mass density (353.12 K, 19000 kPa, x2 = 0.5314): 689.85 ± 0.53 kg/m3
mass density (353.12 K, 19000 kPa, x2 = 0.7736): 682.58 ± 0.53 kg/m3
mass density (353.12 K, 20000 kPa, x2 = 0.0616): 702.19 ± 0.52 kg/m3
mass density (353.12 K, 20000 kPa, x2 = 0.2801): 697.16 ± 0.53 kg/m3
mass density (353.12 K, 20000 kPa, x2 = 0.5314): 690.77 ± 0.53 kg/m3
mass density (353.12 K, 20000 kPa, x2 = 0.7736): 683.51 ± 0.54 kg/m3
mass density (353.12 K, 21000 kPa, x2 = 0.0616): 703.05 ± 0.53 kg/m3
mass density (353.12 K, 21000 kPa, x2 = 0.2801): 698.02 ± 0.53 kg/m3
mass density (353.12 K, 21000 kPa, x2 = 0.5314): 691.66 ± 0.54 kg/m3
mass density (353.12 K, 21000 kPa, x2 = 0.7736): 684.41 ± 0.55 kg/m3
mass density (353.12 K, 22000 kPa, x2 = 0.0616): 703.89 ± 0.53 kg/m3
mass density (353.12 K, 22000 kPa, x2 = 0.2801): 698.88 ± 0.54 kg/m3
mass density (353.12 K, 22000 kPa, x2 = 0.5314): 692.54 ± 0.55 kg/m3
mass density (353.12 K, 22000 kPa, x2 = 0.7736): 685.32 ± 0.55 kg/m3
mass density (353.12 K, 23000 kPa, x2 = 0.0616): 704.72 ± 0.54 kg/m3
mass density (353.12 K, 23000 kPa, x2 = 0.2801): 699.72 ± 0.55 kg/m3
mass density (353.12 K, 23000 kPa, x2 = 0.5314): 693.39 ± 0.55 kg/m3
mass density (353.12 K, 23000 kPa, x2 = 0.7736): 686.21 ± 0.56 kg/m3
mass density (353.12 K, 24000 kPa, x2 = 0.0616): 705.52 ± 0.55 kg/m3
mass density (353.12 K, 24000 kPa, x2 = 0.2801): 700.52 ± 0.55 kg/m3
mass density (353.12 K, 24000 kPa, x2 = 0.5314): 694.23 ± 0.56 kg/m3
mass density (353.12 K, 24000 kPa, x2 = 0.7736): 687.06 ± 0.57 kg/m3
mass density (353.12 K, 25000 kPa, x2 = 0.0616): 706.29 ± 0.55 kg/m3
mass density (353.12 K, 25000 kPa, x2 = 0.2801): 701.34 ± 0.56 kg/m3
mass density (353.12 K, 25000 kPa, x2 = 0.5314): 695.07 ± 0.57 kg/m3
mass density (353.12 K, 25000 kPa, x2 = 0.7736): 687.92 ± 0.58 kg/m3
mass density (363.02 K, 1000 kPa, x2 = 0.5314): 662.89 ± 0.42 kg/m3
mass density (363.02 K, 2000 kPa, x2 = 0.5314): 664.16 ± 0.43 kg/m3
mass density (363.02 K, 3000 kPa, x2 = 0.5314): 665.39 ± 0.43 kg/m3
mass density (363.02 K, 4000 kPa, x2 = 0.5314): 666.61 ± 0.44 kg/m3
mass density (363.02 K, 5000 kPa, x2 = 0.5314): 667.85 ± 0.44 kg/m3
mass density (363.02 K, 6000 kPa, x2 = 0.5314): 669.05 ± 0.45 kg/m3
mass density (363.02 K, 7000 kPa, x2 = 0.5314): 670.24 ± 0.45 kg/m3
mass density (363.02 K, 8000 kPa, x2 = 0.5314): 671.39 ± 0.46 kg/m3
mass density (363.02 K, 9000 kPa, x2 = 0.5314): 672.53 ± 0.46 kg/m3
mass density (363.02 K, 10000 kPa, x2 = 0.5314): 673.66 ± 0.47 kg/m3
mass density (363.02 K, 10990 kPa, x2 = 0.5314): 674.79 ± 0.48 kg/m3
mass density (363.02 K, 12000 kPa, x2 = 0.5314): 675.87 ± 0.48 kg/m3
mass density (363.02 K, 13000 kPa, x2 = 0.5314): 676.95 ± 0.49 kg/m3
mass density (363.02 K, 14000 kPa, x2 = 0.5314): 678.01 ± 0.5 kg/m3
mass density (363.02 K, 15000 kPa, x2 = 0.5314): 679.06 ± 0.5 kg/m3
mass density (363.02 K, 16000 kPa, x2 = 0.5314): 680.09 ± 0.51 kg/m3
mass density (363.02 K, 17000 kPa, x2 = 0.5314): 681.1 ± 0.52 kg/m3
mass density (363.02 K, 18000 kPa, x2 = 0.5314): 682.1 ± 0.52 kg/m3
mass density (363.02 K, 19000 kPa, x2 = 0.5314): 683.1 ± 0.53 kg/m3
mass density (363.02 K, 20000 kPa, x2 = 0.5314): 684.05 ± 0.54 kg/m3
mass density (363.02 K, 21000 kPa, x2 = 0.5314): 685 ± 0.54 kg/m3
mass density (363.02 K, 22000 kPa, x2 = 0.5314): 685.91 ± 0.55 kg/m3
mass density (363.02 K, 23000 kPa, x2 = 0.5314): 686.82 ± 0.56 kg/m3
mass density (363.02 K, 24000 kPa, x2 = 0.5314): 687.69 ± 0.57 kg/m3
mass density (363.02 K, 25000 kPa, x2 = 0.5314): 688.57 ± 0.57 kg/m3
mass density (363.03 K, 1000 kPa, x2 = 0.0616): 675.72 ± 0.42 kg/m3
mass density (363.03 K, 2000 kPa, x2 = 0.0616): 676.86 ± 0.42 kg/m3
mass density (363.03 K, 3000 kPa, x2 = 0.0616): 678.03 ± 0.43 kg/m3
mass density (363.03 K, 4000 kPa, x2 = 0.0616): 679.17 ± 0.43 kg/m3
mass density (363.03 K, 5000 kPa, x2 = 0.0616): 680.28 ± 0.44 kg/m3
mass density (363.03 K, 6000 kPa, x2 = 0.0616): 681.38 ± 0.44 kg/m3

From the NIST ThermoML archive (doi:10.1016/j.jct.2011.08.016)
